Data: patent publication US8557737B2, “Methods of altering poppy characteristics” (priority 2005, dated 2013)
Read-outs that look alike come from different tables or passages of the source.

Tests used:
[1] = system: poppy crops; assay: Example 4: field trial, metsulfuron-methyl alone or tank-mixed with Sunny at early run-up, morphine crop; type: in vivo, Papaver somniferum; settings: COMPOUND 1 120 MG/HA + PULSE .2 % v/v at ERU
Experimental: (§1) All trials were conducted on poppy crops. Seed was treated with Thiram (5.6 g of Thiram 800/kg seed) and Apron (4 g/kg) and sown at a rate of approximately 750 g/ha. Fertilisers were applied at sowing. Most commonly, either 50:50 lime:superphosphate/triple superphosphate at 125 kg/ha, or lime:superphosphate at 250 kg/ha, were mixed with seed and drilled at a depth of 15 mm. In the same operation, NPK (nitrogen:phosphorus:potassium), at various rates, was banded 75 mm below the seed, unless otherwise stated. All crops were subjected to herbicide sprays for weed control, fungicide sprays for disease control, insecticide sprays if appropriate and were irrigated as required.
(§2) All spray applications were made with a precision sprayer, using Silvan Lurmark flat-fan, low-drift nozzles (LD110-0015). Spray equipment was calibrated to deliver 153 L water/ha.
(§3) At harvest, a 2 m×4 m quadrat was placed in each plot (3 m×6 m, unless otherwise stated) and capsules hand-picked from this area. Capsules were broken up, seed and capsule material separated and weighed. Capsule moisture readings were taken with a moisture meter. Alkaloid yield data were calculated on Pesticide Research Manager (version 5 for Windows) using the formulae below. Briefly, capsule weight was adjusted for moisture to a dry weight, 5% of seed weight was added to this (this amount of capsule material regularly occurs in seed samples after processing) to give a capsule weight per plot. Seed weight was adjusted to 95% of crude weight. Straw weights were determined by multiplying dry capsule weight by 1.3 (estimated amount of stem material in a commercial harvest) and adjusted to 11% moisture. When Lontrel was applied to crops exact capsule and seed weight data were entered. Analyses of variance and a Multiple Range Test were performed on data using Pesticide Research Manager. Significant differences (P=0.05) between treatments are denoted by different lower case letters adjacent to treatment means in the tables of results.
Trial to evaluate metsulfuron-methyl (Compound 1) (120 mg/ha) alone, or tank-mixed with Sunny (1 L/ha), in a morphine crop. Treatments were applied to crop at early run-up, plant heights were measured at early green capsule stage.

[2] = system: poppy crops; assay: Example 6: field trial, one or two applications of metsulfuron-methyl after Sunny versus metsulfuron-methyl alone; type: in vivo, Papaver somniferum; settings: COMPOUND 1 120 MG/HA + PULSE .2 % V/V at ERU and at BE (two applications, alone)
Experimental: as §1, §2, §3
Trial to evaluate one or two applications of 120 mg/ha metsulfuron-methyl (Compound 1) after 1 L/ha Sunny, and compare with two applications of metsulfuron-methyl alone. Sunny was applied with crop at 12-14 leaf, metsulfuron-methyl to crop at 12-14 leaf, early run-up and bud-emergence stages. Plant heights were measured at early-full flower and percent lodging was measured on the day of capsule harvest.

[3] = system: poppy crops; assay: Example 18: field trial, triasulfuron, mesosulfuron-methyl and metsulfuron-methyl at row cover, mid run-up and early hook, morphine crop; type: in vivo, Papaver somniferum; settings: Trt 2: COMPOUND 1 120 MG/HA + PULSE .2% V/V at RC, MRU and LRU
Experimental: as §1, §2
as §3, with “Manager.” for “Manager. Significant differences (P=0.05) between treatments are denoted by different lower case letters adjacent to treatment means in the tables of results.”
Trial to evaluate applications of triasulfuron, mesosulfuron-methyl and metsulfuron-methyl, in a morphine crop. […] Plant heights were measured 5 weeks after last application and lodging at capsule harvest.

[4] = system: poppy crops; assay: Example 10: field trial, triasulfuron and metsulfuron-methyl, morphine crop; type: in vivo, Papaver somniferum; settings: COMPOUND 1 120 MG/HA + PULSE .2 % V/V at GC, RU and BE
Experimental: as §1, §2, §3
[…] Treatment sprays were applied to crop at ground cover, mid run-up and bud-emergence, respectively.

[5] = system: poppy crops; parameters: species or system Papaver somniferum; settings: in vivo
[6] = system: poppy crops; assay: Example 3: field trial, metsulfuron-methyl alone or tank-mixed with Sunny at early-mid run-up, morphine crop; type: in vivo, Papaver somniferum; settings: COMPOUND 1 120 MG/HA + PULSE .2 % V/V at E-MRU
Experimental: as §1, §2, §3
Trial to evaluate metsulfuron-methyl (Compound 1) (120 mg/ha) applied alone, or tank-mixed with Sunny (1 L/ha=50 g/ha), in a morphine crop. Treatments were applied to crop at early-mid run-up, plant heights were measured at green capsule stage.

[7] = system: poppy crops; assay: Example 13: field trial, metsulfuron-methyl, Lontrel and metsulfuron-methyl+Lontrel, morphine crop; type: in vivo, Papaver somniferum; settings: Trt 3: COMPOUND 1 120 MG/HA + PULSE .2% V/V at RC, ERU and LRU
Experimental: as §1, §2, §3
Trial to evaluate applications of metsulfuron-methyl (Compound 1), Lontrel and metsulfuron-methyl+Lontrel, in a morphine crop. Treatment sprays were applied to crop at row cover, early run-up and late run-up. Plant heights were measured at green capsule stage. Lodging was assessed at harvest.

In the case of `COC(=O)c1ccccc1S(=O)(=O)NC(=O)Nc1nc(C)nc(OC)n1` [Compound 1, metsulfuron-methyl], the “CAPSULE/SEED RATIO” value [1] is reported as 0.978 a, the “CROP WEIGHT” value [1] is reported as 2.30 b t/ha and the MORPHINE [1] is reported as 31.32 a kg/ha. The SEED [1] was 955 c kg/ha, the STRAW [1] was 1349 a kg/ha and the “STRAW MORPHINE” value [1] was 2.32 a %. For the same molecule, the “PLANT HEIGHT” value ([1]; measured at early green capsule stage) was 82.6 a cm, the “CAPSULE/SEED RATIO” value [2] was 6.140 a and the “CROP WEIGHT” value [2] was 2.46 c t/ha. For the same molecule, the MORPHINE [2] was 38.8 b kg/ha, the SEED [2] was 269 c kg/ha and the STRAW [2] was 2194 a kg/ha. For the same molecule, the “STRAW MORPHINE” value [2] was 1.77 b %, the “PLANT HEIGHT” value ([2]; measured at early-full flower) was 77.4 cm·days and the LODGING ([2]; measured on the day of capsule harvest) was 1.0 b %. The “CAPS/SEED RATIO” value [3] was 2.543 a, the “CROP WEIGHT” value [3] was 2.87 b t/ha and the MORPHINE [3] was 46.52 b kg/ha. For the same molecule, the SEED [3] was 643 c kg/ha, the STRAW [3] was 2186 a kg/ha and the “STRAW MORPHINE” value [3] was 2.13 c %. For the same molecule, the “PLANT HEIGHT” value ([3]; 5 weeks after last application) was 88.0 cm·days, the LODGING ([3]; at capsule harvest) was 1.8 a % and the “CAPSULE/SEED RATIO” value [4] was 11.957 a. The “CROP WEIGHT” value [4] was 1.86 a t/ha, the HEIGHT [4] was 84.2 b cm and the MORPHINE [4] was 39.63 a kg/ha. The SEED [4] was 105 c kg/ha, the STRAW [4] was 1757 a kg/ha and the “STRAW MORPHINE” value [4] was 2.25 a %. The “CAPSULE/SEED RATIO” value [5] was 0.883 a, the MORPHINE [5] was 26.32 c kg/ha and the “PLANT HEIGHT” value [5] was 67 c cm. The SEED [5] was 1015 b kg/ha, the STRAW [5] was 1255 c kg/ha and the “STRAW MORPHINE” value [5] was 2.09 b %. The YIELD [5] was 2.27 c t/ha, the “CAPSULE/SEED RATIO” value [6] was 0.984 ab and the “CROP WEIGHT” value [6] was 1.52 ab t/ha. For the same molecule, the MORPHINE [6] was 20.88 a kg/ha, the SEED [6] was 640 c kg/ha and the STRAW [6] was 884 ab kg/ha. For the same molecule, the “STRAW MORPHINE” value [6] was 2.36 a %, the “PLANT HEIGHT” value ([6]; measured at green capsule stage) was 101.0 a cm and the “CAPS/SEED RATIO” value [7] was 3.431 a. For the same molecule, the “CROP WEIGHT” value [7] was 3.11 b t/ha, the MORPHINE [7] was 50.81 a kg/ha and the SEED [7] was 582 c kg/ha. The STRAW [7] was 2530 a kg/ha, the “STRAW MORPHINE” value [7] was 2.01 a % and the LODGING ([7]; assessed at harvest) was 2.2 b %. It also gave an HEIGHT ([7]; height at green capsule stage) of 95.8 b cm.
